Measurements from US6794395B1, “Substituted indolinones, their manufacture and their use as medicaments” (Boehringer Ingelheim Pharma GmbH & Co. KG, priority 1999, dated 2004).

How the values were obtained:
[1] = system: Human umbilical endothelial cells (HUVEC); test: Inhibition of VEGF165-stimulated HUVEC proliferation (3H-thymidine incorporation); assay type: cell-based; conditions: HUVEC proliferation stimulated with 5 ng/ml VEGF165 and 10 μg/ml heparin, 76 h + 16 h 3H-thymidine
Procedure: Human umbilical endothelial cells (HUVEC) were cultivated in IMDM (Gibco BRL), supplemented with 10% foetal calf serum (FBS) (Sigma), 50 μM of β-mercaptoethanol (Fluka), standard antibiotics, 15 μg/ml of endothelial cell growth factor (ECGS, Collaborative Biomedical Products) and 100 μg/ml of heparin (Sigma) on gelatine-coated culture dishes (0.2% gelatine, Sigma) at 37° C., under 5% CO2 in a water-saturated atmosphere.
In order to investigate the inhibitory activity of the compounds according to the invention the cells were “starved” for 16 hours, i.e. kept in culture medium without growth factors (ECGS+heparin). The cells were detached from the culture dishes using trypsin/EDTA and washed once in serum-containing medium. Then they were seeded out in amounts of 2.5×10^3 cells per well.
The proliferation of the cells was stimulated with 5 ng/ml of VEGF165 (vascular endothelial growth factor; H. Weich, GBF Braunschweig) and 10 μg/ml of heparin. As a control, 6 wells in each dish were not stimulated.
The compounds according to the invention were dissolved in 100% dimethylsulphoxide and added to the cultures in various dilutions as triple measurements, the maximum dimethyl sulphoxide concentration being 0.3%.
The cells were incubated for 76 hours at 37° C., then for a further 16 hours ^3H-thymidine (0.1 μCi/well, Amersham) was added in order to determine the DNA synthesis. Then the radioactively labelled cells were immobilised on filter mats and the radioactivity incorporated was measured in a β-counter. In order to determine the inhibitory activity of the compounds according to the invention the mean value of the non-stimulated cells was subtracted from the mean value of the factor-stimulated cells (in the presence or absence of the compounds according to the invention).
The relative cell proliferation was calculated as a percentage of the control (HUVEC without inhibitor) and the concentration of active substance which inhibits the proliferation of the cells by 50% (IC50) was determined.

[2] = Tolerance test on mice (oral LD50); conditions: mouse, in vivo, read-out: approximate oral LD50
Procedure: In addition the compound of Example 1 (6) was tested on mice for its tolerance. The approximate oral LD50 for this compound is over 1,000 mg/kg. The compounds of general formula I are therefore well tolerated.

SMILES: COc1cc2c(cc1OC)/C(=C(/Nc1ccc(CN(C)Cc3ccccc3)cc1)c1ccccc1)C(=O)N2 [1 (3), 3-(Z)-(1-{4-[(N-benzyl-N-methyl-amino)-methyl)-anilino}-1-phenyl-methylidene)-5,6-dimethoxy-2-indolinone]
- IC50 [1]: 270 nM

SMILES: COc1cc2c(cc1OC)/C(=C(/Nc1ccc(N(C)C(=O)CN(C)C)cc1)c1ccccc1)C(=O)N2 [1 (8), 3-(Z)-{1-[4-(N-dimethylaminomethylcarbonyl-N-methyl-amino)-anilino]-1-phenyl-methylidene}-5,6-dimethoxy-2-indolinone]
- IC50 [1]: 50 nM

SMILES: COc1cc2c(cc1OC)/C(=C(/Nc1ccc(N(CCN(C)C)C(C)=O)cc1)c1ccccc1)C(=O)N2 [1 (17), 3-(Z)-(1-{4-[N-acetyl-N-(2-dimethylamino-ethyl)-amino]-anilino}-1-phenyl-methylidene)-5,6-dimethoxy-2-indolinone]
- IC50 [1]: 40 nM

SMILES: COc1cc2c(cc1OC)/C(=C(/Nc1ccc(N(CCCN(C)C)C(C)=O)cc1)c1ccccc1)C(=O)N2 [1 (18), 3-(Z)-(1-{4-[N-acetyl-N-(3-dimethylamino-propyl)-amino]-anilino}-1-phenyl-methylidene)-5,6-dimethoxy-2-indolinone]
- IC50 [1]: 40 nM

SMILES: CC/C(Nc1ccc(N(C)C(=O)CN(C)C)cc1)=C1/C(=O)Nc2cc(OC)c(OC)cc21 [1 (50), 3-(Z)-{1-[4-(N-dimethylaminomethylcarbonyl-N-methylamino)-anilino]-1-ethyl-methylidene}-5,6-dimethoxy-2-indolinone]
- IC50 [1]: 830 nM

SMILES: COc1cc2c(cc1OC)/C(=C(/Nc1ccc(CN(C)C)cc1)c1ccccc1)C(=O)N2 [Example 1 (6), 3-(Z)-(1-(4-(dimethylaminomethyl)-anilino]-1-phenyl-methylidene}-5,6-dimethoxy-2-indolinone]
- IC50 [1]: 20 nM
- LD50 [2]: > 1000 mg/kg

SMILES: COc1cc2c(cc1OC)/C(=C(/Nc1ccc(CN3CCCCC3)cc1)c1ccccc1)C(=O)N2 [Example 1, 3-(Z)-{1-[4-(piperidin-1-yl-methyl)-anilino]-1-phenyl-methylidene}-5,6-dimethoxy-2-indolinone]
- IC50 [1]: 30 nM

SMILES: COc1cc2c(cc1OC)/C(=C(/Nc1ccc(CCN3CCC(C(=O)N(C)C)CC3)cc1)c1ccccc1)C(=O)N2 [Example 3, 3-(Z)-(1-{4-[2-(4-dimethylcarbamoyl-piperidin-1-yl)-ethyl]-anilino}-1-phenyl-methylidene)-5,6-dimethoxy-2-indolinone]
- IC50 [1]: 50 nM

SMILES: Nc1ccc2c(c1)NC(=O)/C2=C(\Nc1ccc(CN2CCCCC2)cc1)c1ccccc1 [Example 4, 6-amino-3-(Z)-{1-[4-(piperidin-1-yl-methyl)-anilino]-1-phenyl-methylidene}-2-indolinone]
- IC50 [1]: 40 nM
